Data as given in ChEMBL document CHEMBL5576083, “Structure-Based Design and Synthesis of Covalent Inhibitors for Deubiquitinase and Acetyltransferase ChlaDUB1 of Chlamydia trachomatis” (J Med Chem, 2024).
≈ marks a conversion by molar mass, not a printed value. Calls of active or inactive are those of the source. The rule behind the calls is not given here.

Experiments:
[1] = Covalent inhibition of C-terminal 6His-tagged Chlamydia trachomatis DUB1 (130 to 401 residues) expressed in Escherichia coli Rosetta 2 (DE3) cells using Ub-Rh110Gly as fluorogenic substrate preincubated for 1 hr followed by substrate addition by plate reader analysis
[2] = system: Chlamydia trachomatis; test: Anti-chlamydial activity against Chlamydia trachomatis serovar L2 infected in human HEp-2 cells assessed as inhibition of chlamydial inclusion incubated for 24 hrs by Alexa488/DAPI staining based immunofluorescence assay; format: functional, organism-based; details: serovar L2, HEp-2, 24 h
[3] = (§1) Binding affinity to C-terminal 6His-tagged Chlamydia trachomatis DUB1 (130 to 401 residues) expressed in Escherichia coli Rosetta 2 (DE3) cells using Ub-Rh110Gly as fluorogenic substrate assessed as inhibition constant preincubated for 60 mins followed by substrate addition measured after 360 mins by plate reader analysis
[4] = target: Ubiquitin carboxyl-terminal hydrolase isozyme L1 (Homo sapiens) (UniProt P09936); test: Binding affinity to human UCHL1 (1 to 223 residues) expressed in Escherichia coli Rosetta 2 (DE3) cells using Ub-Rh110Gly as fluorogenic substrate assessed as ratio of Kinact/Ki by fluorescence based analysis
[5] = system: Chlamydia trachomatis; test: Antimicrobial activity against Chlamydia trachomatis serovar L2 infected in human HeLa cells assessed as reduction in inclusion circumference at 6.25 ug/ml measured after 24 hrs of post-infection by microscopic analysis (reference value: 33.2 micrometer); format: functional; details: dose 6.25 µg/ml
[6] = system: Chlamydia trachomatis; test: Antimicrobial activity against Chlamydia trachomatis serovar L2 infected in human HeLa cells assessed as reduction in microbial progeny at 3.13 ug/ml measured after 24 hrs of post-infection by immunofluorescence analysis; format: functional; set-up: scale not given: the % may be the effect or the level left; details: dose 3.13 µg/ml
[7] = system: Chlamydia trachomatis; test: Antimicrobial activity against Chlamydia trachomatis serovar L2 infected in human HeLa cells assessed as reduction in inclusion area at 12.5 ug/ml measured after 24 hrs of post-infection by microscopic analysis (reference value: 79.96 microm2); format: functional; details: dose 12.5 µg/ml
[8] = system: Chlamydia trachomatis; test: Antimicrobial activity against Chlamydia trachomatis serovar L2 infected in human HeLa cells assessed as reduction in microbial progeny at 1.56 ug/ml measured after 24 hrs of post-infection by immunofluorescence analysis; format: functional; set-up: scale not given: the % may be the effect or the level left; details: dose 1.56 µg/ml
[9] = system: Chlamydia trachomatis; test: Antimicrobial activity against Chlamydia trachomatis serovar L2 infected in human HeLa cells assessed as reduction in microbial progeny at 6.25 ug/ml measured after 24 hrs of post-infection by immunofluorescence analysis; format: functional; set-up: scale not given: the % may be the effect or the level left; details: dose 6.25 µg/ml
[10] = system: Chlamydia trachomatis; test: Antimicrobial activity against Chlamydia trachomatis serovar L2 infected in human HeLa cells assessed as reduction in microbial progeny at 3.13 ug/ml measured after 48 hrs of post-infection by immunofluorescence analysis; format: functional; set-up: scale not given: the % may be the effect or the level left; details: dose 3.13 µg/ml
[11] = system: Chlamydia trachomatis; test: Antimicrobial activity against Chlamydia trachomatis serovar L2 infected in human HeLa cells assessed as reduction in microbial progeny at 1.56 ug/ml measured after 48 hrs of post-infection by immunofluorescence analysis; format: functional; set-up: scale not given: the % may be the effect or the level left; details: dose 1.56 µg/ml
[12] = system: Chlamydia trachomatis; test: Antimicrobial activity against Chlamydia trachomatis serovar L2 infected in human HeLa cells assessed as reduction in inclusion area at 6.25 ug/ml measured after 24 hrs of post-infection by microscopic analysis (reference value: 79.96 microm2); format: functional; details: dose 6.25 µg/ml
[13] = system: Chlamydia trachomatis; test: Antimicrobial activity against Chlamydia trachomatis serovar L2 infected in human HeLa cells assessed as reduction in inclusion circumference at 12.5 ug/ml measured after 24 hrs of post-infection by microscopic analysis (reference value: 33.2 micrometer); format: functional; details: dose 12.5 µg/ml
[14] = system: Chlamydia trachomatis; test: Antimicrobial activity against Chlamydia trachomatis serovar L2 infected in human HeLa cells assessed as reduction in microbial progeny at 12.5 ug/ml measured after 24 hrs of post-infection by immunofluorescence analysis; format: functional; set-up: scale not given: the % may be the effect or the level left; details: dose 12.5 µg/ml
[15] = target: Ubiquitin carboxyl-terminal hydrolase 7 (Homo sapiens) (UniProt Q93009); test: Binding affinity to USP7 (208 to 1102 residues) (unknown origin) expressed in Sf9 insect cells assessed as ratio of Kinact/Ki incubated for 3 hrs by fluorescence based analysis
Ubiquitin carboxyl-terminal hydrolase 7 (Homo sapiens), sequence (Q93009 whole entry, looked up, the tested form may be a part): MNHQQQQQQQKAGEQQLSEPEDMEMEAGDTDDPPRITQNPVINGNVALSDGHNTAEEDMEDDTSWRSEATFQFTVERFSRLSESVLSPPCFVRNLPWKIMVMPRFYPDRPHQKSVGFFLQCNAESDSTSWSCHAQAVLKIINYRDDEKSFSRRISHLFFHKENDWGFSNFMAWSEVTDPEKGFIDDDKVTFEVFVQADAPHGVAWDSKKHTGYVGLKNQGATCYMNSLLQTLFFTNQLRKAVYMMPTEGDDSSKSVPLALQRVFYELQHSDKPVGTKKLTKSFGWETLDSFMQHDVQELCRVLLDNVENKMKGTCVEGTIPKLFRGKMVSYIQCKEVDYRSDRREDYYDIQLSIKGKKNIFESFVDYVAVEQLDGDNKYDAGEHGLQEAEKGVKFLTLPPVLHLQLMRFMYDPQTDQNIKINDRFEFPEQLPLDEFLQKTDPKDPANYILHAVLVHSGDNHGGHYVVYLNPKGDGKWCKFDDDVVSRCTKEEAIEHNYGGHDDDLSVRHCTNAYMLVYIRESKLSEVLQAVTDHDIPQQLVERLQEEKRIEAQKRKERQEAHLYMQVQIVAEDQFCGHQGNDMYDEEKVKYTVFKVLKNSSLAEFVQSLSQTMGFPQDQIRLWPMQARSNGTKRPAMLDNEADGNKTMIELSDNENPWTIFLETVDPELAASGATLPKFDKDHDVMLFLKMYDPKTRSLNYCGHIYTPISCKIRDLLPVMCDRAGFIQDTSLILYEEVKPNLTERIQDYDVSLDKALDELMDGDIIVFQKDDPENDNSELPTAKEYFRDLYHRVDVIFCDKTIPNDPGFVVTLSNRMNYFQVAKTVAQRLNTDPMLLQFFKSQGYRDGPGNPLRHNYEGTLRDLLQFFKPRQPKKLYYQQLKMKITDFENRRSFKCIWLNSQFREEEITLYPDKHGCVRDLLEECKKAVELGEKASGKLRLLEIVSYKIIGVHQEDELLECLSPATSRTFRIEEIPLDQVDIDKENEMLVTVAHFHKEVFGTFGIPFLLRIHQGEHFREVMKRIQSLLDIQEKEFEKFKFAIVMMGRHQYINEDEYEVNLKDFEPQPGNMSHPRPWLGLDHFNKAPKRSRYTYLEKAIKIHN

[16] = system: Chlamydia trachomatis; test: as §1, with “Kinact” for “inhibition constant”; details: time 420.0 min
[17] = system: Chlamydia trachomatis; test: as §1, with “ratio of Kinact/Ki” for “inhibition constant”; details: time 420.0 min
[18] = system: Chlamydia trachomatis; test: Antimicrobial activity against Chlamydia trachomatis serovar L2 infected in human HeLa cells assessed as reduction in inclusion forming unit at 1 ug/ml measured at 24 to 48 hrs of post-infection by immunofluorescence based microscopic analysis; format: functional, organism-based; details: dose 1.0 µg/ml, time 24-48 hrs
[19] = system: Chlamydia trachomatis; test: Antimicrobial activity against Chlamydia trachomatis serovar L2 infected in human HeLa cells assessed as fold increase in inclusion forming unit at 1 ug/ml measured after 48 hrs of post-infection by immunofluorescence based microscopic analysis; format: functional; details: dose 1 µg/ml
[20] = target: T1, Ubiquitin carboxyl-terminal hydrolase isozyme L1 (Homo sapiens, UniProt P09936); test: Inhibition of 6His-tagged human UCHL1 using Ub-Rh110Gly as fluorogenic substrate preincubated for 1 hr followed by substrate addition by plate reader analysis
T1 sequence (P09936 whole entry): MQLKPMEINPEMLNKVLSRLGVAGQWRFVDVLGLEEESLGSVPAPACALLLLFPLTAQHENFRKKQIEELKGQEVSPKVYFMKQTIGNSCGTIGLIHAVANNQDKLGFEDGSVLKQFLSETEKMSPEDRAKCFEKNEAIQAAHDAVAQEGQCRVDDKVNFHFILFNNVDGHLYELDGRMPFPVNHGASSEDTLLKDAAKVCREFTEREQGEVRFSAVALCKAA

| IC50 [1] | pIC50 [1] | IC50 [2] | Structure (SMILES) | other results |
| --- | --- | --- | --- | --- |
| 81 µM | 4.09 | > 50 µg/mL | COc1cccc(CNC(=O)c2ccc(CNC(=O)c3cnc(C#N)nc3)cc2)c1 |  |
| 18 µM | 4.75 | 16.9 µg/mL (≈ 43.8 µM) | Cc1ccccc1CNC(=O)c1ccc(CNC(=O)c2cnc(C#N)nc2)cc1 |  |
| 31 µM | 4.5 | 16.9 µg/mL (≈ 42.1 µM) | COc1ccccc1CNC(=O)c1ccc(CNC(=O)c2cnc(C#N)nc2)cc1 | Ki [3]: 276 µM |
|  |  |  | C#CCCCNC(=O)c1ccc(-n2cnc(NC(=O)[C@H]3CCN(C#N)C3)c2)cc1 | Ratio [4]: 681 M⁻¹ s⁻¹ |
| 31 µM | 4.51 |  | N#Cc1ncc(C(=O)NCc2ccc(C(=O)NCc3nccs3)cc2)cn1 |  |
| 521 µM | 3.28 |  | COc1ccc(CNC(=O)c2ccc(CNC(=O)c3cnc(C#N)nc3)cc2)cc1 |  |
| 21 µM | 4.68 | 17.3 µg/mL (≈ 44.9 µM) | Cc1cccc(CNC(=O)c2ccc(CNC(=O)c3cnc(C#N)nc3)cc2)c1 |  |
| 41 µM | 4.13 | 9.88 µg/mL (≈ 24 µM) | CC(C)(C)N(Cc1ccc(C(=O)Cc2ccccc2)cc1)C(=O)c1cnc(C#N)nc1 | Activity [5]: 24.83 um; Activity [6]: 31.5%; Activity [7]: 23.3 um2; Activity [8]: 16.5%; Activity [9]: 38.5%; Activity [10]: 51.5%; Activity [11]: 55.5%; Activity [12]: 44.93 um2; Activity [13]: 18.05 um; Activity [14]: 81% |
| 21 µM | 4.67 | 38.9 µg/mL (≈ 111 µM) | N#Cc1ncc(C(=O)NCc2ccc(C(=O)NCC3CCC3)cc2)cn1 |  |
| 35 µM | 4.46 | 28.4 µg/mL (≈ 72.2 µM) | CC(C)CN(CC(C)C)C(=O)c1ccc(CNC(=O)c2cnc(C#N)nc2)cc1 |  |
|  |  |  | C=CS(=O)(=O)Nc1ccccc1-c1ccc(C(=O)N2CCC(O)(Cn3cnc4c(cnn4C)c3=O)CC2)cc1 | Ratio [15]: 66 M⁻¹ s⁻¹ |
| 23 µM | 4.64 |  | N#Cc1ncc(C(=O)NCc2ccc(C(=O)NCC3CCCCC3)cc2)cn1 |  |
| 14 µM | 4.86 |  | N#Cc1ncc(C(=O)NCc2ccc(C(=O)CCN3CCOCC3)cc2)cn1 | Kinact [16]: 0.363 min⁻¹; Ki [3]: 441 µM; Ratio [17]: 13.7 M⁻¹ s⁻¹ |
|  |  | 0.018 µg/mL (≈ 0.0405 µM) | C[C@H]1c2cccc(O)c2C(=O)C2=C(O)[C@]3(O)C(=O)C(C(N)=O)=C(O)[C@@H](N(C)C)[C@@H]3[C@@H](O)[C@@H]21 [DOXYCYCLINE ANHYDROUS] | Activity [18]: Active; fold change (FC) [19]: 5.3 |
| 131 µM | 3.88 |  | Cn1c(-c2ccc(CNC(=O)c3cnc(C#N)nc3)cc2)nc2ccccc21 |  |
| 241 µM | 3.62 |  | Cc1ccc(CNC(=O)c2ccc(CNC(=O)c3cnc(C#N)nc3)cc2)cc1 |  |
| 24 µM | 4.63 |  | N#Cc1ncc(C(=O)NCc2ccc(C(=O)Cc3ccccc3)cc2)cn1 |  |
|  |  |  | Cc1nn(C)c2cc(-c3ccc(-n4cnc(NC(=O)[C@H]5CCN(C#N)C5)c4)cc3)ccc12 | IC50 [20]: < 1 µM |
| 154 µM | 3.82 |  | N#Cc1ncc(C(=O)NCc2ccccc2)cn1 |  |
| 74 µM | 4.13 | 47.4 µg/mL (≈ 169 µM) | CC(=O)c1ccc(CNC(=O)c2cnc(C#N)nc2)cc1 |  |
| 13 µM | 4.9 | 15.8 µg/mL (≈ 38 µM) | CCOc1ccccc1CNC(=O)c1ccc(CNC(=O)c2cnc(C#N)nc2)cc1 |  |
| 27 µM | 4.57 | 19.4 µg/mL (≈ 52.2 µM) | N#Cc1ncc(C(=O)NCc2ccc(C(=O)NCc3ccccc3)cc2)cn1 | Ki [3]: 226 µM |
| 16 µM | 4.79 |  | N#Cc1ncc(C(=O)NCc2ccc(C(=O)N3CCc4ccccc4C3)cc2)cn1 |  |
| 25 µM | 4.6 | 40.7 µg/mL (≈ 116 µM) | N#Cc1ncc(C(=O)NCc2ccc(C(=O)NCCC3CC3)cc2)cn1 |  |
| 51 µM | 4.29 |  | N#Cc1ncc(C(=O)NCc2ccc(C(=O)NCCN3CCOCC3)cc2)cn1 |  |
| 37 µM | 4.43 | 47.7 µg/mL (≈ 142 µM) | N#Cc1ncc(C(=O)NCc2ccc(C(=O)NCC3CC3)cc2)cn1 |  |
| 64 µM | 4.2 |  | N#Cc1ncc(C(=O)NCc2ccc(C(=O)NCCc3ccccc3)cc2)cn1 |  |
| 74 µM | 4.13 |  | CCCN(CCC)C(=O)c1ccc(CNC(=O)c2cnc(C#N)nc2)cc1 |  |
